According to patent US20230157998A1, “Methods of Inhibiting SARS-CoV-2 Replication and Treating Corona Virus Disease 2019” (Pfizer Inc., priority 2020, published 2023):
≈ marks a conversion by molar mass, not a printed value. Where “and” joins values, the source holds several entries; their conditions need not be identical. Equal values may be shown once. Read-outs that look alike come from different tables or passages of the source.

Experiments:
physchem [1] = settings: 25 °C, pH 5, aqueous buffer, thermodynamic from solid, PF-00835321 Saturated Solubility
cytochrome P450 enzymes = settings: human, microsomes
SARS-CoV-2 [2] = settings: for Bliss Synergy Score / HSA Synergy Score / Loewe Synergy Score: with Remdesivir; for classification of the combination effect: with remdesivir
Freeze-thaw experiment = settings: solutions of the order-of-addition experiment, −20° C. freezer ~24 hours, thawed at room temperature
HKU1-CoV 3CLpro = HKU1-CoV 3CLpro (Human coronavirus HKU1, UniProt P0C6X2); experiment: FRET protease activity assay; format: biochemical; settings: Beta-CoV; [E]T 57 ± 1 nM
Human Elastase = Human Elastase (Homo sapiens, UniProt P08246); experiment: Protease panel; format: biochemical
[3] = human
[4] = system: SARS-CoV-2 USA-NYU-VC-003/2020; experiment: In vitro drug efficacy in A549+ACE2 cells; format: cell-based; settings: Severe acute respiratory syndrome coronavirus 2, 24 hours post infection
[5] = system: BetaCov GHB-03021/2020 strain; experiment: microbe, parasite or virus in culture; format: cell-based, SARS-CoV-2; settings: Severe acute respiratory syndrome coronavirus 2
[6] = Intravenous pharmacokinetics; settings: rat, dog, monkey, in vivo, 2 mg/kg
CYP3A4/5 = settings: microsomes
SARS-CoV-2 [7] = experiment: Antiviral activity in HeLa-ACE2 cells (viral protein detection); format: cell-based; settings: Severe acute respiratory syndrome coronavirus 2, compound alone
physchem [8] = settings: organic solvent or mixture, thermodynamic from solid
NL63-CoV 3CLpro = NL63-CoV 3CLpro (Human coronavirus NL63, UniProt P0C6X5); experiment: FRET protease activity assay; format: biochemical; settings: Alpha-CoV; [E]T 170 ± 4 nM
[9] = pH 7.4
[10] = Plasma protein binding by equilibrium dialysis
[11] = system: SARS-CoV-2 Washington strain 1; experiment: Cytopathic effect (CPE) assay in VeroE6-enACE2 cells; format: cell-based
physchem [12] = settings: 4 °C, thermodynamic from solid
[13] = system: CYP1A2, 2B6, 2C8, 2C9, 2C19, 2D6, and 3A; settings: read-out: IC50, reversible inhibition of CYP enzymes; probe substrates in pooled HLM
physchem [14] = settings: 25 °C, pH 5, aqueous buffer, thermodynamic from solid, Saturated solubility for PF-00835231 at 25° C.
SARS-CoV-2 3CLpro = SARS-CoV-2 3CLpro (Severe acute respiratory syndrome coronavirus 2, UniProt P0DTD1); experiment: Thermal-shift assay; settings: n=8; 55.9+/−[…] C. (n=16) without compound
SARS-CoV-2 [15] = experiment: microbe, parasite or virus in culture
[16] = system: SARS-CoV-2 (USA_WA1/2020); settings: for synergy score: isobologram level 0.9
[17] = Patient Sera 2, individual value, n 1

Sequence of NL63-CoV 3CLpro (P0C6X5 2940-3242): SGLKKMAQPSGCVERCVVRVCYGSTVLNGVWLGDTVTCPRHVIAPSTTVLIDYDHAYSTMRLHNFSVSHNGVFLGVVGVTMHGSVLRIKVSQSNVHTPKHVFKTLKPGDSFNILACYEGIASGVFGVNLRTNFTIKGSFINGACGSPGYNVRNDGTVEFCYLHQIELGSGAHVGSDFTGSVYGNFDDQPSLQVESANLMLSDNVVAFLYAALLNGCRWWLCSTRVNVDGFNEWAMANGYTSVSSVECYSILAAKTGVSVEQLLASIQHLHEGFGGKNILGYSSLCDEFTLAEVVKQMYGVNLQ
Sequence of Human Elastase (P08246 30-247): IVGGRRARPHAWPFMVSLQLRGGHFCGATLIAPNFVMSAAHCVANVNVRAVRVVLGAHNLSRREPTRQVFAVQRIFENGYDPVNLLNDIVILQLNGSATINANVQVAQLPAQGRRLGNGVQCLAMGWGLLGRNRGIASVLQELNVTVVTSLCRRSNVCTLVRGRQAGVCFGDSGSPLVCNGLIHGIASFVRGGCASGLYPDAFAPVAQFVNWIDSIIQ
Sequence of HKU1-CoV 3CLpro (P0C6X2 3335-3637): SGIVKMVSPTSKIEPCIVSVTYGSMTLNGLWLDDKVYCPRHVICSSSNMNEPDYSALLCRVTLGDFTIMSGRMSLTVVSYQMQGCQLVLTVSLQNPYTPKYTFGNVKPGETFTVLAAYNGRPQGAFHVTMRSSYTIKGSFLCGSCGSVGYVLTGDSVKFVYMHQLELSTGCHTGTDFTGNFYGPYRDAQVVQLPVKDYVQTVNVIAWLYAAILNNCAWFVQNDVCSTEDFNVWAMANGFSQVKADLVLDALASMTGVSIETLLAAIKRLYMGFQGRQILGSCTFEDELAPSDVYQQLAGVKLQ

In the case of COc1cccc2[nH]c(C(=O)N[C@@H](CC(C)C)C(=O)N[C@@H](C[C@@H]3CCNC3=O)C(=O)CO)cc12 [PF-00835231], the solubility at 48 h (physchem [1]) is reported as 200 µg/mL (≈ 423 µM), the “unbound CIint” value (cytochrome P450 enzymes) is reported as 14 µL/min/mg and the “cytotoxicity in virus infected host cells” value (SARS-CoV-2 [2]; all the combinations with remdesivir tested) is reported as “no noticeable cytotoxicity”. For the same compound, the “Bliss Synergy Score” value (SARS-CoV-2 [2]; Patient Sera 1, average, n 2) was 1.60, the “HSA Synergy Score” value (SARS-CoV-2 [2]; Patient Sera 1, average, n 2) was 2.51 and the “Loewe Synergy Score” value (SARS-CoV-2 [2]; Patient Sera 1, average, n 2) was 1.60. For the same compound, the “Bliss Synergy Score” value (SARS-CoV-2 [2]; [17]) was “(0.366)”, the “HSA Synergy Score” value (SARS-CoV-2 [2]; [17]) was “(0.830)” and the “Loewe Synergy Score” value (SARS-CoV-2 [2]; [17]) was “(−0.0776)”. For the same compound, the “classification of the combination effect” value (SARS-CoV-2 [2]; patient #1 sera, 2 independent experiments) was “synergy”, the “classification of the combination effect” value (SARS-CoV-2 [2]; sera from patient #2, single experiment) was “additivity” and the “visual inspection after freezing and thawing” value (Freeze-thaw experiment) was “No particulates were observed in any sample”. The Ki (HKU1-CoV 3CLpro) was 0.9 ± 0.2 nM, the IC50 (Human Elastase) was > 33300 nM and the predicted half-life [3] was “approximately 2 h”. The “predicted plasma clearance (CLp)” value [3] was ~6 mL/min/kg, the EC50 [4] was 184 nM and the EC90 [4] was 591 nM. For the same compound, the EC90 [5] was 1600 nM, the half-life [6] was < 1.5 h and the “time dependent inhibition of CYP3A4/5” value (CYP3A4/5) was “weak signal”. The EC50 (SARS-CoV-2 [7]) was 140 nM and 144 nM, the EC90 (SARS-CoV-2 [7]) was 400 nM and 398 nM and the solubility (physchem [8]) was ≥ 200000 µg/mL. For the same compound, the Ki (NL63-CoV 3CLpro) was 0.8 ± 0.5 nM, the “Solid Form at 4° C.” value (pH 3) was “No Change-Hydrate” and the “Solid Form at 4° C.” value (pH 5) was “No Change-Hydrate”. For the same compound, the “Solid Form at 4° C.” value (pH 7) was “No Change-Hydrate”, the SFLogD7.4 [9] was 1.7 and the fraction unbound [10] was 0.26 to 0.46. The EC50 ([11]; Severe acute respiratory syndrome coronavirus 2, VeroE6-enACE2 cells, in the presence of the P-gp inhibitor, quoted for the EC50/EC90 difference, read-out: EC50) was 0.48 µM, the EC90 ([11]; Severe acute respiratory syndrome coronavirus 2, Vero-cell lines, P-gp inhibitor added) was 480 to 1600 nM and the “difference between EC50 and EC90” value ([11]; both Vero cell types) was 2-3 fold. The EC50 ([11]; read-out: EC50 μM GeoMean) was 0.23 µM, the solubility at 48 h (physchem [12]; pH 3, aqueous buffer) was 100 µg/mL (≈ 212 µM) and the solubility at 48 h (physchem [12]; pH 5, aqueous buffer) was 100 µg/mL (≈ 212 µM). The solubility at 48 h (physchem [12]; pH 7, aqueous buffer) was 100 µg/mL (≈ 212 µM), the IC50 [13] was > 200000 nM and the solubility at 25 h (physchem [14]) was 200 µg/mL (≈ 423 µM). For the same compound, the “melting temperature (Tm) of SARS-CoV-2 3CLpro with compound bound” value (SARS-CoV-2 3CLpro) was 70.5+/−0.12 °C, the EC90 (SARS-CoV-2 [15]; Severe acute respiratory syndrome coronavirus 2, HeLa-ACE2, HELA-ACE2, remdesivir concentration 0) was 433 nM and the EC90 (SARS-CoV-2 [15]; Severe acute respiratory syndrome coronavirus 2, HeLa-ACE2, HELA-ACE2, remdesivir concentration 48 (nm in FIG. 5A legend)) was 123 nM. The EC90 (SARS-CoV-2 [15]; Severe acute respiratory syndrome coronavirus 2, HeLa-ACE2, HELA-ACE2, remdesivir concentration 95 (nm in FIG. 5A legend)) was 54.5 nM, the EC90 (SARS-CoV-2 [15]; Severe acute respiratory syndrome coronavirus 2, HeLa-ACE2, HELA-ACE2, remdesivir concentration 190 (nm in FIG. 5A legend)) was < 0.78 nM and the “cytotoxicity of the combinations” value [16] was “no significant cytotoxicity”. For the same compound, the synergy score ([16]; combination with azithromycin) was 3.76 and the synergy score ([16]; combination with remdesivir) was 5.1.
